{"source": "paper PMC12363211", "about": "“Rationally designed self-assembled peptide nanofibers provoke robust humoral immunity against nervous necrosis virus” (Journal of Virology, 2025)", "key": {"[1]": {"assay": "Nanofiber self-assembly and morphology (TEM)", "format": "physicochemical", "settings": "in the salts (pH = 7)", "description": "CP^64-83-Q11 nanofiber synthesis and characteristics\nQ11, CP^64-83, and CP^64-83-Q11 peptides were synthesized and purified by Genecreate Co. (Wuhan). […] The morphology of the CP^64-83-Q11 was determined by transmission electron microscopy (TEM) using a Hitachi Model H-7700 microscope (Hitachi, Japan). The particle size of reassembled CP^64-83-Q11 was determined using a Zetasizer (nano ZS90, Malvern Panalytical, UK). The secondary structure of CP^64-83-Q11 nanovaccine was analyzed by circular dichroism (CD) spectra (Chirascan V100, Applied Photophysics, UK)."}, "[2]": {"test_system": "grouper", "assay": "In vivo safety: survival, weight and pathology of vaccinated grouper", "settings": "i.p. 2 mM, 28-day period", "description": "NNV-free pearl gentian grouper (Epinephelus lanceolatus × Epinephelus fuscoguttatus) juveniles (5.12 ± 0.63 g) were purchased from a commercial fish farm (Wenchang, Hainan, China). Real-time quantitative polymerase chain reaction (qPCR) was used to detect NNV in purchased fish. Primers of NNVdetection F: […] and NNVdetection R: […] were used for NNV detection. Grouper were reared in a recirculating water system with filtered seawater at 28.0 ± 1.0°C. Each tank contains 50 L seawater with continuous aeration. Fish were fed twice daily and acclimated for 15 days before experiments.\nSafety evaluation of the CP^64-83-Q11 nanofiber\nThe safety evaluation of the synthesized nanofiber was assessed using in vitro and in vivo models. For the in vitro cytotoxicity evaluation, the standard MTT assay was employed. GF-1 cells and grouper macrophages were seeded into 96-well plates at a density of 5 × 10⁵ cells per well. These cells were then exposed to varying concentrations (1, 5, 10, 20, and 40 µg/mL) of Q11, CP^64-83, CP, or CP^64-83-Q11 for 24 h. […] Absorbance was then measured at 490 nm using a microplate reader. Cell viability was calculated as follows: Cell viability = (ODtreatment group − ODblank)/(ODcontrol group − ODblank) × 100%. […] Additionally, the initial and final weights of the fish were monitored throughout the 28-day period."}}, "note": "Marks after values point to notes of the source that are not given here."}
{"sequence": "QQKFQFQFEQQ [Q11, Q11 peptide (…), a minimalist self-assembling motif]", "values": [{"measurement": "self-assembly into nanofibers", "setting": "[1]", "value": "could self-assemble into nanofibers in the salts (pH = 7)"}, {"measurement": "Survival rate", "setting": "[2]; unchallenged vaccinated grouper, 78 fish per group, all groups incl. control share letter a", "value": "98.26 ± 3.37^a %"}, {"measurement": "Final weight", "setting": "[2]; vaccinated grouper, initial weight 5.12 ± 0.63 g, all groups incl. control (8.96 ± 1.02) share letter a", "value": "8.72 ± 0.56^a g"}]}
